The target of series [1] is T1, Solute carrier organic anion transporter family member 1A4 (Mus musculus, UniProt Q9EP96).
T1 sequence (Q9EP96 whole entry): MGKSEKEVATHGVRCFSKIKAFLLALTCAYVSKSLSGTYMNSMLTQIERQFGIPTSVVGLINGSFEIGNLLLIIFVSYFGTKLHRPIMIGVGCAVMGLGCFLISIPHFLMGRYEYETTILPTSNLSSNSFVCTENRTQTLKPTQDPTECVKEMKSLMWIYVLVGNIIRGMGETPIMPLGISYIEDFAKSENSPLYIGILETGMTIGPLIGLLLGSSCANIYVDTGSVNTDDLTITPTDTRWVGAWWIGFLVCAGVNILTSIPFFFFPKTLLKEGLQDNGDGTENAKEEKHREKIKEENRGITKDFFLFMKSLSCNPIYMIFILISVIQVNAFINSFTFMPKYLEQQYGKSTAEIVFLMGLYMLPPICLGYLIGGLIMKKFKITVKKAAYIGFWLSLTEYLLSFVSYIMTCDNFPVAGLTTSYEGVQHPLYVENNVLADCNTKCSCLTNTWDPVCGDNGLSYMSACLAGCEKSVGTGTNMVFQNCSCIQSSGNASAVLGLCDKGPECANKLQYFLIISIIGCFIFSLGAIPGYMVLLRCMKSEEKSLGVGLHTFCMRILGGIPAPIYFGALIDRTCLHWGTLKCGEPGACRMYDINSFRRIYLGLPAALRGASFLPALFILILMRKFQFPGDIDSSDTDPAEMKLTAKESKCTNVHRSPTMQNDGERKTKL
Nature of the series: (§1) TP_TRANSPORTER: uptake in Xenopus laevis oocytes. The series is classed as functional, cell-based. Conditions: oocyte.

Substrate in series [2]: C[C@H]1O[C@@H](O[C@H]2[C@@H](O)C[C@H](O[C@H]3[C@@H](O)C[C@H](O[C@H]4CC[C@@]5(C)[C@H](CC[C@@H]6[C@@H]5C[C@@H](O)[C@]5(C)[C@@H](C7=CC(=O)OC7)CC[C@]65O)C4)O[C@@H]3C)O[C@@H]2C)C[C@H](O)[C@@H]1O
The description is as §1. Type of series: functional, cell-based, Oocyte.

Where a SMILES comes first, the peptide text is derived from it. [ ]: non-standard residue; d: D form.

Activity and Km data for six molecules are collected here from ChEMBL document CHEMBL2073934, “Functional characterization of the mouse organic-anion-transporting polypeptide 2” (Biochim Biophys Acta, 2002).

With `CC(C)C[C@@H]1NC(=O)[C@@H](C(C)C)NC(=O)[C@@H]2CCCN2C(=O)[C@@H](CC(=O)O)NC(=O)[C@@H](Cc2c[nH]c3ccccc23)NC1=O` [BQ-123] (cyclo(L[dW][dD]P[dV])), the Activity result in series [1] is “substrate [+]”.

For `C[C@]12CC[C@@H]3c4ccc(OS(=O)(=O)O)cc4CC[C@H]3[C@@H]1CCC2=O` [ESTRONE SULFURIC ACID], the Activity entry in series [1] was “substrate [+]”.

On to `C[C@@H]1O[C@@H](O[C@H]2C[C@@H](O)[C@]3(CO)[C@H]4[C@H](O)C[C@]5(C)[C@@H](C6=CC(=O)OC6)CC[C@]5(O)[C@@H]4CC[C@]3(O)C2)[C@H](O)[C@H](O)[C@H]1O` [OUABAIN], for which, in series [1], the Activity result is “substrate [+]”.

Take `C[C@]12CC[C@H](OS(=O)(=O)O)CC1=CC[C@@H]1[C@@H]2CC[C@]2(C)C(=O)CC[C@@H]12` [PRASTERONE SULFURIC ACID]: the Activity entry in series [1] was “substrate [+]”.

`O=C1OC(c2ccc(O)c(S(=O)(=O)[O-])c2)(c2ccc(O)c(S(=O)(=O)[O-])c2)c2c(Br)c(Br)c(Br)c(Br)c21.[Na+].[Na+]` [SULFOBROMOPHTHALEIN SODIUM]: in series [1], the Activity result is “substrate [+]”.

B1: Solute carrier organic anion transporter family member 1A4 (Mus musculus) (protein)
chain: MGKSEKEVATHGVRCFSKIKAFLLALTCAYVSKSLSGTYMNSMLTQIERQFGIPTSVVGLINGSFEIGNLLLIIFVSYFGTKLHRPIMIGVGCAVMGLGCFLISIPHFLMGRYEYETTILPTSNLSSNSFVCTENRTQTLKPTQDPTECVKEMKSLMWIYVLVGNIIRGMGETPIMPLGISYIEDFAKSENSPLYIGILETGMTIGPLIGLLLGSSCANIYVDTGSVNTDDLTITPTDTRWVGAWWIGFLVCAGVNILTSIPFFFFPKTLLKEGLQDNGDGTENAKEEKHREKIKEENRGITKDFFLFMKSLSCNPIYMIFILISVIQVNAFINSFTFMPKYLEQQYGKSTAEIVFLMGLYMLPPICLGYLIGGLIMKKFKITVKKAAYIGFWLSLTEYLLSFVSYIMTCDNFPVAGLTTSYEGVQHPLYVENNVLADCNTKCSCLTNTWDPVCGDNGLSYMSACLAGCEKSVGTGTNMVFQNCSCIQSSGNASAVLGLCDKGPECANKLQYFLIISIIGCFIFSLGAIPGYMVLLRCMKSEEKSLGVGLHTFCMRILGGIPAPIYFGALIDRTCLHWGTLKCGEPGACRMYDINSFRRIYLGLPAALRGASFLPALFILILMRKFQFPGDIDSSDTDPAEMKLTAKESKCTNVHRSPTMQNDGERKTKL
As to B1, the Km in series [2] worked out at 5.7 µM.
